In ChEMBL document CHEMBL3885861, “Open TG-GATES”:

Organism: Rattus norvegicus
Assay: Open TG-GATES - Regimen: Single
Type: toxicity, organism-based, Sprague-Dawley
Set-up: regimen Single, gender Male, age 6 weeks
Details: in vivo, po, 10 mg/kg, route gavage, dose level High; for APTT / Bas / Eos / Fbg / Hb / Ht / Lym / MCH / MCHC / MCV / Mono / Neu / PT / Plat / RBC / Ret / WBC: tissue Blood; for KIDNEY_L / KIDNEY_R / KIDNEY_TOTAL: tissue Kidney; for LIVER: tissue Liver; for A/G / ALP / ALT / AST / BUN / CRE / Ca / Cl / DBIL / GLC / IP / K / LDH / Na / PL / RALB / TBIL / TC / TG / TP / gamma-GTP: tissue Plasma

CN1C(C(=O)Nc2ccccn2)=C(O)c2sc(Cl)cc2S1(=O)=O [LORNOXICAM]
TERMINAL_BW (3 h): 225.5 g | APTT (3 h): 20.6 s | Bas (3 h): 0.6% | Eos (3 h): 1% | Fbg (3 h): 212.8 mg/dL | Hb (3 h): 13.3 g/dL | Ht (3 h): 40.2% | Lym (3 h): 76% | MCH (3 h): 20.9 pg | MCHC (3 h): 33.3% | MCV (3 h): 63 fL | Mono (3 h): 2.8% | Neu (3 h): 19.2% | PT (3 h): 11.8 s | Plat (3 h): 112.2 x10_4/uL | RBC (3 h): 638.8 x10_4/ul | Ret (3 h): 7.5% | WBC (3 h): 112.4 x10_2/uL | KIDNEY_L (3 h): 1 g | KIDNEY_R (3 h): 1 g | KIDNEY_TOTAL (3 h): 1.9 g | LIVER (3 h): 10.3 g | A/G (3 h): 1.8 | ALP (3 h): 965.2 IU/L | ALT (3 h): 42.2 IU/L | AST (3 h): 79.2 IU/L | BUN (3 h): 13.4 mg/dL | CRE (3 h): 0.4 mg/dL | Ca (3 h): 10.7 mg/dL | Cl (3 h): 104.4 meq/L | DBIL (3 h): 0.074 mg/dL | GLC (3 h): 193.6 mg/dL | IP (3 h): 9 mg/dL | K (3 h): 4.1 meq/L | LDH (3 h): 188.8 IU/L | Na (3 h): 142.2 meq/L | PL (3 h): 139.2 mg/dL | RALB (3 h): 3.5 g/dL | TBIL (3 h): 0.1 mg/dL | TC (3 h): 76.8 mg/dL | TG (3 h): 38.2 mg/dL | TP (3 h): 5.5 g/dL | gamma-GTP (3 h): 0.6 IU/L | TERMINAL_BW (6 h): 223.7 g | APTT (6 h): 19.5 s | Bas (6 h): 0.6% | Eos (6 h): 0.8% | Fbg (6 h): 229.2 mg/dL | Hb (6 h): 13.2 g/dL | Ht (6 h): 39.3% | Lym (6 h): 76.8% | MCH (6 h): 20.5 pg | MCHC (6 h): 33.6% | MCV (6 h): 60.9 fL | Mono (6 h): 2.8% | Neu (6 h): 18.6% | PT (6 h): 12.1 s | Plat (6 h): 129.2 x10_4/uL | RBC (6 h): 644.8 x10_4/ul | Ret (6 h): 6.7% | WBC (6 h): 96.3 x10_2/uL | KIDNEY_L (6 h): 1 g | KIDNEY_R (6 h): 1 g | KIDNEY_TOTAL (6 h): 2 g | LIVER (6 h): 9.6 g | A/G (6 h): 1.6 | ALP (6 h): 989.2 IU/L | ALT (6 h): 46.8 IU/L | AST (6 h): 78.6 IU/L | BUN (6 h): 12.8 mg/dL | CRE (6 h): 0.3 mg/dL | Ca (6 h): 10.5 mg/dL | Cl (6 h): 104.8 meq/L | DBIL (6 h): 0.072 mg/dL | GLC (6 h): 196.2 mg/dL | IP (6 h): 8.6 mg/dL | K (6 h): 3.9 meq/L | LDH (6 h): 219 IU/L | Na (6 h): 141.8 meq/L | PL (6 h): 137 mg/dL | RALB (6 h): 3.5 g/dL | TBIL (6 h): 0.1 mg/dL | TC (6 h): 75.8 mg/dL | TG (6 h): 56.4 mg/dL | TP (6 h): 5.6 g/dL | gamma-GTP (6 h): 1 IU/L | TERMINAL_BW (9 h): 221.8 g | APTT (9 h): 18.9 s | Bas (9 h): 0.4% | Eos (9 h): 0.8% | Fbg (9 h): 215.6 mg/dL | Hb (9 h): 13.2 g/dL | Ht (9 h): 39.2% | Lym (9 h): 63.6% | MCH (9 h): 21.1 pg | MCHC (9 h): 33.7% | MCV (9 h): 62.6 fL | Mono (9 h): 4.2% | Neu (9 h): 30.6% | PT (9 h): 12.5 s | Plat (9 h): 113.4 x10_4/uL | RBC (9 h): 627.4 x10_4/ul | Ret (9 h): 7% | WBC (9 h): 97.9 x10_2/uL | KIDNEY_L (9 h): 1 g | KIDNEY_R (9 h): 1 g | KIDNEY_TOTAL (9 h): 2 g | LIVER (9 h): 9.3 g | A/G (9 h): 1.7 | ALP (9 h): 755.2 IU/L | ALT (9 h): 35.6 IU/L | AST (9 h): 69.8 IU/L | BUN (9 h): 13.8 mg/dL | CRE (9 h): 0.3 mg/dL | Ca (9 h): 10.5 mg/dL | Cl (9 h): 103.6 meq/L | DBIL (9 h): 0.08 mg/dL | GLC (9 h): 188 mg/dL | IP (9 h): 9.1 mg/dL | K (9 h): 4.1 meq/L | LDH (9 h): 195.6 IU/L | Na (9 h): 141.4 meq/L | PL (9 h): 130.8 mg/dL | RALB (9 h): 3.3 g/dL | TBIL (9 h): 0.1 mg/dL | TC (9 h): 67.6 mg/dL | TG (9 h): 59.2 mg/dL | TP (9 h): 5.3 g/dL | gamma-GTP (9 h): 1.2 IU/L | TERMINAL_BW (24 h): 236.6 g | APTT (24 h): 21.2 s | Bas (24 h): 0.2% | Eos (24 h): 0.4% | Fbg (24 h): 261 mg/dL | Hb (24 h): 12.8 g/dL | Ht (24 h): 38.5% | Lym (24 h): 54% | MCH (24 h): 20.9 pg | MCHC (24 h): 33.2% | MCV (24 h): 63.1 fL | Mono (24 h): 4% | Neu (24 h): 39.6% | PT (24 h): 12 s | Plat (24 h): 119.9 x10_4/uL | RBC (24 h): 610.2 x10_4/ul | Ret (24 h): 6.5% | WBC (24 h): 162.1 x10_2/uL | KIDNEY_L (24 h): 1.1 g | KIDNEY_R (24 h): 1.1 g | KIDNEY_TOTAL (24 h): 2.2 g | LIVER (24 h): 11.6 g | A/G (24 h): 1.5 | ALP (24 h): 949.2 IU/L | ALT (24 h): 38.6 IU/L | AST (24 h): 69.8 IU/L | BUN (24 h): 13.4 mg/dL | CRE (24 h): 0.4 mg/dL | Ca (24 h): 10.4 mg/dL | Cl (24 h): 105 meq/L | DBIL (24 h): 0.1 mg/dL | GLC (24 h): 203.6 mg/dL | IP (24 h): 7.6 mg/dL | K (24 h): 4.1 meq/L | LDH (24 h): 214.2 IU/L | Na (24 h): 141.4 meq/L | PL (24 h): 148.2 mg/dL | RALB (24 h): 3.1 g/dL | TBIL (24 h): 0.2 mg/dL | TC (24 h): 74.6 mg/dL | TG (24 h): 108.8 mg/dL | TP (24 h): 5.1 g/dL | gamma-GTP (24 h): 1 IU/L
